Values quoted from earlier work, collected in patent US9406119B2, “Estimating pharmacokinetic parameters in imaging” (INVICRO, LLC, priority 2010, dated 2016).

Experiments:
αvβ3 [1] = molecular target: T1, αvβ3 (Homo sapiens, UniProt P05106+P06756); conditions: parameter obtained from the literature
αvβ3 [2] = molecular target: T1, αvβ3; conditions: parameter obtained from the literature; remark: listed apart in the source
[3] = in vivo

T1 sequence (P06756 31-889 limits assumed): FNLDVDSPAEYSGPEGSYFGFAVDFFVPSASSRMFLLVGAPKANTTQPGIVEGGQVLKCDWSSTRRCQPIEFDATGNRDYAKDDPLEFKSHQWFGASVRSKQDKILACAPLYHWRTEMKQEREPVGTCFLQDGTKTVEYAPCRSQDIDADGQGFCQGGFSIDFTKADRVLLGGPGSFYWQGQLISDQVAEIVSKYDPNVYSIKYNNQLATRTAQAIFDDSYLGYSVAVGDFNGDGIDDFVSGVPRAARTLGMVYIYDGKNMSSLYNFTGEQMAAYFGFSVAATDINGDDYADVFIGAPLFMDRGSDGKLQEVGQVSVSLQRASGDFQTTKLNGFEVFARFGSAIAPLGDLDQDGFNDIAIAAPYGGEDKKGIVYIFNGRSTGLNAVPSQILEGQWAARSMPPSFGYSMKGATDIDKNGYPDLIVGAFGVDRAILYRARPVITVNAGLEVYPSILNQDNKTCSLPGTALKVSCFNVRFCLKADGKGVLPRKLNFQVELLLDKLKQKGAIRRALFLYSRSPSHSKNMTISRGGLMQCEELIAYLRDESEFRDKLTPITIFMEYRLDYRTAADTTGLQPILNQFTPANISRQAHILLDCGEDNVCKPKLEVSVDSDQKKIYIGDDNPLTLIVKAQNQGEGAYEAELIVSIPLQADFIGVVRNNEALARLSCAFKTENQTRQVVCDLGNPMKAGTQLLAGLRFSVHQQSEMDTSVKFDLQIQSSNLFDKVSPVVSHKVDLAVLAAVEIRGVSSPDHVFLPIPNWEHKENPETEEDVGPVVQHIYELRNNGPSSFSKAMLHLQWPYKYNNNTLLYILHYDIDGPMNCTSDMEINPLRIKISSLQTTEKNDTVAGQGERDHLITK
T1 sequence (P06756 891-1048 partner limits assumed): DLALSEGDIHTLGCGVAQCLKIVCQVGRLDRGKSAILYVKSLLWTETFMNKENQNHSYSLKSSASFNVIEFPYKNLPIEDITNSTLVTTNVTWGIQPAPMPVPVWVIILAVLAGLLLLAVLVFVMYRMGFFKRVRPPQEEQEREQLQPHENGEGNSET
T1 sequence (P05106 27-788): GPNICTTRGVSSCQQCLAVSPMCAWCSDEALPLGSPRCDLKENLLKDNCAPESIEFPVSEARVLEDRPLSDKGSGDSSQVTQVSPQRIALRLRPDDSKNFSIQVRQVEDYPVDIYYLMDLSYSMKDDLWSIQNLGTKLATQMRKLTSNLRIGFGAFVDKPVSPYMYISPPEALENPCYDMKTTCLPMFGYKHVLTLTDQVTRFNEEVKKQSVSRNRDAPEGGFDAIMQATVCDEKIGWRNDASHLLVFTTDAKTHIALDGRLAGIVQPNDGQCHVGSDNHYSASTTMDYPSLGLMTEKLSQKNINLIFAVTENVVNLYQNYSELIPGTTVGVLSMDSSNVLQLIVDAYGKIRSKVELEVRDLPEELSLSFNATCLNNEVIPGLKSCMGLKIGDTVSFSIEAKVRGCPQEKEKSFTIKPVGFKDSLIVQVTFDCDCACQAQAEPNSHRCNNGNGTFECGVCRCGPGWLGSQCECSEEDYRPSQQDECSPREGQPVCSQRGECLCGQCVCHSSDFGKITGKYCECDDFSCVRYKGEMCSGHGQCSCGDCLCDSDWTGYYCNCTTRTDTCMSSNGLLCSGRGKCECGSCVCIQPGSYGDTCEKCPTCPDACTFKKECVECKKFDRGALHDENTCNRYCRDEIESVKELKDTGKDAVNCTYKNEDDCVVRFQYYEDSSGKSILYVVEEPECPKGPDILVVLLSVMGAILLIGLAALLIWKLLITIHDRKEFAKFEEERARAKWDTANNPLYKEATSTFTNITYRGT

For ^18F-galacto-RGD [^18F-galacto RGD], the “ke,B (internalization rate constant of the CA/antigen bound complex)” value (αvβ3 [1]) is listed as 1.48e-05 s⁻¹, the “kresid (rate of release of CA or CA signal from the intracellular compartment)” value (αvβ3 [1]) is listed as 1.6e-05 s⁻¹ and the “koff (CA/antigen dissociation rate constant)” value (αvβ3 [2]) is listed as 0.0008 s⁻¹. For the same substance, the “kon (CA/antigen association rate constant)” value (αvβ3 [2]) was 10^5 M^−1s^−1, the Kd (αvβ3 [2]; read-out: KD=koff/kon) was 8 nM and the “A (fraction of fast phase of plasma clearance)” value [3] was 0.82. The “B (fraction of slow phase of plasma clearance)” value [3] was 0.18, the “α (fast plasma clearance rate constant)” value [3] was 0.0026 s⁻¹ and the “β (slow plasma clearance rate constant)” value [3] was 0.00014 s⁻¹.
